Measured values as given in paper PMC6544261, “A novel thermostable and halophilic thioredoxin reductase from the Red Sea Atlantis II hot brine pool” (PLoS ONE, 2019).

Biological target: T1, ATII-TrxR (Cupriavidus basilensis, UniProt A0A643FQQ5)
T1 construct: codon-optimised synthetic gene in pET-28a(+), His-tagged, E. coli BL21(DE3), HisTrap; dimer
T1 sequence (A0A643FQQ5 1-552): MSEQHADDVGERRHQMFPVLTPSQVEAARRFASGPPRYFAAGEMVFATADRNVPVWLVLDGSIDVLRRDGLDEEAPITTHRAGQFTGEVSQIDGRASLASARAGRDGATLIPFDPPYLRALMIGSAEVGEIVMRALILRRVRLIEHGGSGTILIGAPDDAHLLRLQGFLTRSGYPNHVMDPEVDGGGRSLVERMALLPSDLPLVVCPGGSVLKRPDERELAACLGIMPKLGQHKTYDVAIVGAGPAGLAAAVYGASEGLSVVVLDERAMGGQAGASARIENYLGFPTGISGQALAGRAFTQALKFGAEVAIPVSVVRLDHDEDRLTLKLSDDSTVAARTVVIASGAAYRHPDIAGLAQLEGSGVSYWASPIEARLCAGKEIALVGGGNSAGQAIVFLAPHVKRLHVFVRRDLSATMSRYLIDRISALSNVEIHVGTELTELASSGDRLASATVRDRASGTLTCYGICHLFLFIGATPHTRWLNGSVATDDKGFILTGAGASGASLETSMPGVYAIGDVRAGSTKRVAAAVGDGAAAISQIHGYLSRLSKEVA
Experiment: flavin absorbance at […] nm, co-elution of […] and […] nm peaks
Format: binding
Settings: cofactor bound to enzyme as purified

Cc1cc2nc3c(=O)[nH]c(=O)nc-3n(C[C@H](O)[C@H](O)[C@H](O)COP(=O)(O)OP(=O)(O)OC[C@H]3O[C@@H](n4cnc5c(N)ncnc54)[C@H](O)[C@@H]3O)c2cc1C [FAD]
mol FAD/mol native enzyme: The binding of ATII-TrxR protein to the cofactor FAD was confirmed
